Measurements taken from patent publication US9522187B2, “Cancer therapy using beta glucan and antibodies” (University of Louisville Research Foundation, Inc., priority 2002, dated 2016).

What was measured:
[1] = test system: human LAN-1 neuroblastoma; experiment: Oral barley β-glucan with antibody against LAN-1 neuroblastoma xenograft (FIG. 10); format: in vivo, athymic BALB/c mice; details: β-glucan daily by gavage for 21-29 days; 3F8 i.v. twice weekly
Method: Neuroblastoma cells were xenografted subcutaneously in athymic BALB/c mice. Treatment started in groups of 5 mice, 2 weeks after tumor implantation when visible tumors reached 0.7-0.8 cm in diameter. The β-glucan groups was treated with […] daily by gavage for a total of 21-29 days. Monoclonal antibodies (3F8) were administered i.v. at a dose of […] twice weekly. Tumor size was measured from the first day of treatment, and the product of the largest diameter was expressed as a percentage of the size on day zero.

CR3 [2] = target: T1, CR3 (Homo sapiens, UniProt P11215); experiment: Inhibition of SZP-FITC staining of neutrophils by unlabeled polysaccharides; format: binding; details: compared with soluble yeast MP β-glucan or SZP
T1 construct: endogenous in cells
Method: Neutrophils were incubated at 4° C. with graded concentrations of β-glucans (SZP, laminarin, MP β-glucan, barley β-glucan, and lentinan), α-mannan or dextran for 15 minutes and then stained by addition of 1.0 mg/ml of SZP-FITC and incubated for an additional 15 minutes at 4° C. Percentage inhibition was then compared with polysaccharide concentration. […] Similar results were obtained when the same unlabeled polysaccharides were examined for inhibition of laminarin β-glucan-FITC staining. The rank order for inhibiting activity for both experiments was SZP>laminarin>MP β-glucan. However, CM β-glucan (carboxymethyl β-glucan from yeast), barley β-glucan, and lentinan inhibited laminarin-FITC staining more efficiently than they inhibited SZP-FITC staining.

CR3 [3] = target: T1, CR3; experiment: Neutrophil fluorescence staining by FITC-labeled polysaccharides (flow cytometry); format: binding; details: neutrophils
Text: Fluorescence intensity values obtained with individual polysaccharide-FITC conjugates cannot be compared, since the molar ratio of FITC to polysaccharide is likely to differ and cannot be readily calculated.

Human NK cells = experiment: β-glucan and CR3-dependent stimulation of NK cell cytokine secretion, ELISA (FIG. 13); format: cell-based; details: 18 hours at 37° C.; particulate yeast β-glucan and grifolan 2 g/ml, MP β-glucan and SZP 2.0 μg/ml
Method: The function of NK cells in mediating host defense includes both direct cytotoxicity of tumor cells and the secretion of cytokines such as TNF-α and IFN-γ that can potentially regulate immune responses and recruit tumoricidal macrophages. […] Human NK cells were cultured with either particulate yeast β-glucan or soluble CR3-binding polysaccharides for 18 hours at 37° C. Culture supernatants were then analyzed for TNF-α by ELISA. […] Anti-CR3 blocks both β-glucan binding to CR3, as well as the binding of primed CR3 to iC3b on the EC3bi target cells.

[4] = test system: advanced low-grade or slow-growing NHL; details: patients who completed treatment; cited from earlier work
RMA-S-MUC1 tumor cells [5] = experiment: s.c. RMA-S-MUC1 tumor therapy with 14.G2a or BCP8 mAb and/or NSG β-glucan (FIG. 17B-C, 18B-C); format: in vivo, C57B1/6 mice; details: 2-week therapy, observed for a 4-month period
Method: Three different tumor therapy protocols are shown. FIG. 17A is a graph showing Pta64 therapy with 11CI anti-MMTV mAb combined with glucan. FIG. 17B is a graph showing RMA-S-MUC1 therapy with i.v. 14 G2a anti-GD2 mab combined with glucan. FIG. 17C is a graph showing RMA-S-MUC1 therapy with i.v. BCP8 anti-MUC1 mab combined with glucan. After tumor cells were implanted, small tumors were allowed to form over 5-9 days before immunotherapy was carried out for a total period of 14 days. […] In graphs B and C, C57B1/6 mice were implanted s.c. with RMA-S-MUC1 tumor cells and then 5 days later treated with either 14.G2a anti-GD2 ganglioside and/or NSG β-glucan (300 μg per day) or BCP8 IgG2b […] and/or NSG β-glucan ([…] per day). […] Mean values and standard errors (SE) of the mean are shown.
(§1) RMA-S cells transfected with human MUC1 were also provided by Dr. Finn (Soares, M. M., et al., J. Immunol., 166: 6555-6563 (2001)), and 1×10^6 cell were implanted s.c. in C57B1/6 mice in or near a mammary fat pad. […]

[6] = test system: iC3b-opsonized breast tumor cells; experiment: β-glucan priming of murine neutrophil CR3 for cytotoxicity (FIG. 4); format: cell-based; details: normal murine neutrophils
Method: The effect of β glucan priming of murine neutrophil CR3 on subsequent cytotoxic triggering by iC3b-opsonized breast tumor cells is shown in FIG. 4. […] This activity disappears, however, when antibody to the CD11b (murineCR3 equivalent) is added, interfering with the receptor's ability to bind to iC3b. […] Adding antibody against CD11b had little effect on CD11b-deficient neutrophils, as expected.

MMT mammary carcinoma = experiment: β-glucan therapy of MMT mammary carcinoma in normal and C3-deficient 129/J mice (FIG. 8); format: in vivo; details: daily i.v. therapy
Text: The requirement for C3 in β-glucan therapy was confirmed in experiments with C3-deficient 129/J mice implanted with the MMT mammary carcinoma. Twelve normal (C3+/+) and 12 C3-deficient (C3−/−) 129/J mice were implanted with the MMT mammary carcinoma tumor cell line and palpable tumors were allowed to form before beginning daily i.v. therapy of groups of 6 mice each with PBS or β-glucan. A similar protocol was used with normal (CD+/+) and CR3-deficient (CD11b-knockout; Cd11b−/−) BALB/c mice implanted with Ptas64 mammary tumors.

RMA-S lymphoma = experiment: Survival of mice with RMA-S hepatic lymphomas treated with 14.G2a and/or β-glucan (FIG. 16); format: in vivo, C57B1/6 mice; details: therapy from day 5 for 3 weeks
Method: The C57B1/6 lymphoma EL-4, that highly expresses membrane GD2 ganglioside, was provided by Dr. Nai-Kong V. Cheung. Normal C57B1/6 mice were injected with 3×10^5 EL-4 cells i.v. to generate liver tumors (Zhang, H., et al., Cancer Res., 58: 2844-2849 (1998)). Ten days later, 4 groups of 6 mice were given i.v. 100 μl doses of: a) PBS (control group), b) SZP β-glucan (4 mg/ml) repeated daily, c) 3F8 mAb to GD2 ganglioside (2 mg/ml) repeated every 3rd day, or d) both daily β-glucan and 3F8 mAb every 3rd day. After 2 weeks of therapy, the mice were sacrificed and their livers were removed and weighed in comparison to the livers of a group of normal tumor-free mice. The net weight of liver tumors was calculated by subtracting the weight of a normal liver (1.0 g) from the weights of the livers from tumor-bearing mice. A similar liver tumor model was carried out using the C57B1/6 lymphoma RMA-S that similarly expresses GD2 ganglioside but is defective in peptide loading of MHC class I (kindly provided by Dr. Olivera J. Finn, Pittsburgh Cancer Institute, Pittsburgh, Pa.) in combination with 14.G2a mAb to GD2 ganglioside (100 μg, given i.v. every 3rd day). Mice were similarly divided into 4 groups that were treated beginning 5 days after i.v. injection of 3×10^5 cells with: 1) i.v. PBS (control), 2) i.v. NSG β-glucan (400 μg per day), 3) 14.G2a mAb, or 4) both NSG β-glucan and 14.G2a mAb. […]

EL-4 lymphoma = experiment: mAb and/or β-glucan therapy of hepatic EL-4 lymphoma (FIG. 9, FIG. 15); format: in vivo, C57B1/6 mice; details: therapy from day 10 for 2 weeks; SZP β-glucan 100 μl of 4 mg/ml i.v. daily; 3F8 100 μl of 2 mg/ml i.v. every 3rd day
Method: Mice were injected with the EL-4 cells i.v., a protocol known to result in liver metastases. Ten days later, the mice were given daily i.v. doses of β-glucan alone, 3F8 mAb to GD2 ganglioside (a prominent tumor antigen of EL-4 cells), or 3-glucan plus 3F8 mAb. The 3F8 mAb is IgG3 and is a potent activator of complement and also mediates ADCC. […] As expected, the β-glucan had little effect on its own since the tumors bore little or no iC3b.
The C57B1/6 lymphoma EL-4, that highly expresses membrane GD2 ganglioside, was provided by Dr. Nai-Kong V. Cheung. Normal C57B1/6 mice were injected with 3×10^5 EL-4 cells i.v. to generate liver tumors (Zhang, H., et al., Cancer Res., 58: 2844-2849 (1998)). Ten days later, 4 groups of 6 mice were given i.v. 100 μl doses of: a) PBS (control group), b) SZP β-glucan (4 mg/ml) repeated daily, c) 3F8 mAb to GD2 ganglioside (2 mg/ml) repeated every 3rd day, or d) both daily β-glucan and 3F8 mAb every 3rd day. After 2 weeks of therapy, the mice were sacrificed and their livers were removed and weighed in comparison to the livers of a group of normal tumor-free mice. The net weight of liver tumors was calculated by subtracting the weight of a normal liver (1.0 g) from the weights of the livers from tumor-bearing mice. […]

[7] = test system: Lewis Lung carcinoma tumor cells transfected with human MUC1 (LL/2-MUC1); experiment: s.c. LL/2-MUC1 Lewis lung carcinoma therapy in C3-deficient versus wild-type mice (FIG. 21, 22); format: in vivo, C57B1/6 mice
Method: C3-deficient (C3^−/−) mice and their wild-type littermates on a C57BL/6 background were implanted s.c. with 1×10^6 Lewis Lung carcinoma tumor cells transfected with human MUC1 (LL/2-MUC1). After allowing 7 days for development of small tumors, mice were treated with BCP8 IgG2b anti-MUC1 mAb (200 μg every 3rd day) and/or NSG β-glucan (400 μg daily) for a total therapy period of 3 weeks. […] Mean values±SE of the mean are shown.
Lewis lung carcinoma cells (LL/2, CRL-1642) originally derived from C57B1/6 mice were obtained from the ATCC and transfected with a plasmid containing cDNA for human MUC1 that was provided by Dr. Olivera Finn (Soares, M. M., et al., J. Immunol., 166: 6555-6563, 2001.). A LL/2 line expressing a uniformly high surface density of MUC1 was selected by FACS sorting of cells stained with BCP8-FITC mAb (MoFlo High Speed Cell Sorter, Dako-Cytomation, Fort Collins, Colo.). A further selection was made by passaging the cell line two times in C57B1/6 mice given the cells s.c. A tumor line was selected that both expressed uniformly high levels of surface MUC1 and was capable of generating s.c. tumors in C57B1/6 injected with as few as 5×10^5 cells. Therapy of mice bearing these s.c. tumors was initiated after 7 days when tumors were only 1-2 mm in diameter. Four groups of six C3-deficient or their wild-type littermate C57B1/6 mice were treated with: a) i.v. PBS every 3rd day (control); b) 400 μg of NSG β-glucan given i.v. daily; c) 200 μg of BCP8 anti-MUC1 mAb given i.v. every 3rd day; d) combined therapy with BCP8 mAb and NSG β-glucan. Therapy was given for 3 weeks with measurement of tumor diameters every 3rd day, and mice were sacrificed when tumors reached 15 mm diameter. Mice were observed over a total period of 90 days for tumor-free survival.

RMA-S-MUC1 tumor cells [8] = experiment: s.c. RMA-S-MUC1 tumor therapy in CR3-deficient versus wild-type mice (FIG. 19, 20); format: in vivo, C57B1/6 mice
Method: FIGS. 19A-19B are graphs showing the enhancement of tumor regression mediated by NSG β-glucan requires leukocyte CR3 and fails in CR3-deficient (CD11b^−/−) mice. FIG. 19A is a graph showing the tumor diameter vs. therapy of wild type mice. FIG. 19B is a graph showing the tumor diameter vs. therapy of CR3 deficient mice. […] Tumor measurements were made at the indicated times (FIGS. 19A-19B) and then survival was monitored (FIGS. 20A-20B). Mice received 14.G2a anti-GD2 ganglioside mAb (100 μg every 3rd day) and/or NSG β-glucan (400 μg daily). There was no difference in the rate of tumor regression produced by mAb therapy alone in the CR3-deficient versus wild-type mice and there was no β-glucan enhancement of mAb-mediated tumor regression in the CR3-deficient mice. […] Mean values±SE of the mean are shown.
as §1

(1,3),(1,4)-β-D-glucan [barley β-glucan]
tumor growth (tumor size as percentage of day zero), in words [1]: neither β-glucan or mAb alone showed much effect | affinity for CR3 (in words) (CR3 [2]): relatively low affinity for CR3

Dextran-FITC
Polysaccharide-FITC Concentration Required for Maximum Specific Fluorescence Staining (Saturation of Receptor Binding Sites) (CR3 [3]): No specific staining | Specific Fluorescence Mean Channel at Saturation (Total-Nonspecific Fluorescence Obtained in the Presence of Excess of Unlabeled Polysaccharide) (CR3 [3]): 0

grifolan
NK cell cytokine secretion in the absence of target cells, in words (Human NK cells): secretion of both TNF-α and IL-6

rituximab: monoclonal antibody used to treat a type of non-Hodkin's lymphoma
patients having complete remission [4]: 6% | patients whose tumors shrunk by at least one half [4]: 48%

β-glucan
survival (RMA-S-MUC1 tumor cells [5]): 20% | cytotoxicity towards iC3b-opsonized breast tumor cells, in words [6]: high level of cytotoxicity | tumor reduction (MMT mammary carcinoma; C3-deficient (C3−/−) 129/J mice): no significant tumor reduction | tumor reduction (MMT mammary carcinoma; normal (C3+/+) 129/J mice): 79% | survival, in words (RMA-S lymphoma): no therapeutic benefit | reduction in liver tumor net weight compared to untreated controls (EL-4 lymphoma): 25.6% | regression and survival, in words ([7]; C3-deficient mice): neither mAb nor β-glucan, separately or combined, elicited any regression | survival, in words ([7]; wild-type mice): survival advantage compared to mAb alone | tumor regression, in words ([7]; wild-type mice, BCP8 200 μg every 3rd day, NSG β-glucan 400 μg daily, 3 weeks): lower level of regression | tumor regression, in words (RMA-S-MUC1 tumor cells [8]; CR3-deficient mice): no regression | mice remaining tumor-free (survival) (RMA-S-MUC1 tumor cells [8]; wild-type mice, 14.G2a 100 μg every 3rd day, NSG β-glucan 400 μg daily, 21 days): no survivors
